Measurements reported in patent US20200148646A1, “6-S[…] 7-S[…] ANALOGS AND THE USE THEREOF” (Purdue Pharma, L.P., priority 2013, published 2020).

Experiments:
μ-opioid receptor [1] = biological target: T1, μ-opioid receptor (Homo sapiens, UniProt P35372); assay: μ-opioid receptor radioligand ([3H]-diprenorphine) dose-displacement binding assay, HEK-293 or CHO cells
Procedure: Radioligand dose-displacement binding assays for μ-opioid receptors used 0.3 nM [^3H]-diprenorphine (Perkin Elmer, Shelton, Conn.), with […] membrane protein/well in a final volume of 500 μl binding buffer (10 mM MgCl2, 1 mM EDTA, 5% DMSO, 50 mM HEPES, pH 7.4). Reactions were carried out in the absence or presence of increasing concentrations of unlabeled naloxone. All reactions were conducted in 96-deep well polypropylene plates for 2 hr at room temperature. Binding reactions were terminated by rapid filtration onto 96-well Unifilter GF/C filter plates (Perkin Elmer, Shelton, Conn.), presoaked in 0.5% polyethylenimine using a 96-well tissue harvester (Perkin Elmer, Shelton, Conn.) followed by performing three filtration washes with 500 μl of ice-cold binding buffer. Filter plates were subsequently dried at 50° C. for 2-3 hours. BetaScint scintillation cocktail (Perkin Elmer, Shelton, Conn.) was added (50 l/well), and plates were counted using a Packard Top-Count for 1 min/well. The data were analyzed using the one-site competition curve fitting functions in GraphPad PRISM™ v. 3.0 or higher (San Diego, Calif.), or an in-house function for one-site competition curve-fitting.
(§1) In TABLE 1, binding affinity of certain Compounds of the Invention to the μ-, and κ-opioid receptors in HEK-293 or CHO cells was determined as described above.

μ-opioid receptor [2] = biological target: T1, μ-opioid receptor; assay: μ-opioid receptor [35S]GTPγS functional assay, HEK-293 or CHO cells; assay type: biochemical; settings: for Emax: HEK-293 or CHO cells, relative to DAMGO
Summary of the method: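 Agonist-stimulated [35S]GTPγS binding to recombinant μ-receptor membranes (HEK-293 or CHO) with 0.20 nM [35S]GTPγS, […] and saponin, pH 7.4, 30 min at about 25 °C, then filtration and scintillation counting. EC50 from sigmoidal fits; Emax relative to DAMGO.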

μ-opioid receptor [3] = biological target: T1, μ-opioid receptor; assay: μ-opioid receptor [35S]GTPγS functional assay, U-2 OS cells; assay type: biochemical; parameters: host or cells: U-2 OS cells; settings: for Emax: U2-OS cells, relative to DAMGO
Summary of the method: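 U-2 OS membranes expressing recombinant human μ-receptor (0.026 mg/mL) were incubated with compound, […], saponin and [35S]GTPγS 0.20 nM in HEPES/NaCl/MgCl2 buffer pH 7.4 for 30 min at about 25° C. Filter-bound radioactivity gave sigmoidal fits for EC50; Emax is relative to DAMGO.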

human κ opioid receptor [4] = biological target: T2, human κ opioid receptor (Homo sapiens, UniProt P41145); assay: κ-opioid receptor [35S]GTPγS functional assay, HEK-293 or CHO cells; assay type: biochemical; parameters: expressed in transfected cells; settings: for Emax: HEK-293 or CHO cells, relative to U69,593
T2 sequence (P41145 whole entry): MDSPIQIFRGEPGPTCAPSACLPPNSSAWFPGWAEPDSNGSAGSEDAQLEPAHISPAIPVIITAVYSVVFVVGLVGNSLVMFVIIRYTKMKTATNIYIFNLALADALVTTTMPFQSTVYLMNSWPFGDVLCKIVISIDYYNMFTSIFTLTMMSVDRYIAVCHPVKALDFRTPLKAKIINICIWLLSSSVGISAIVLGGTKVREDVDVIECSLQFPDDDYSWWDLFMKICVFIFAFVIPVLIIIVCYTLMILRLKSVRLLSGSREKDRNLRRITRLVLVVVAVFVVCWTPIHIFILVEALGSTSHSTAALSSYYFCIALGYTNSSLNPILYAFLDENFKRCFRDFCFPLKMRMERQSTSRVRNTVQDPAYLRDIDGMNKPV
Procedure: Membranes from recombinant HEK-293 cells, CHO or U-2 OS cells expressing the recombinant human K opioid receptor (K) were prepared by lysing cells in ice cold hypotonic buffer (2.5 mM MgCl2, 50 mM HEPES, pH 7.4) (10 mL/10 cm dish) followed by homogenization with a tissue grinder/Teflon pestle. Functional [^35S]GTPγS binding assays were conducted as follows. K opioid receptor membrane solution was prepared by sequentially adding final concentrations of 0.026 μg/μl κ membrane protein (in-house), 10 μg/mL saponin, 3 μM GDP and 0.20 nM [^35S]GTPγS to binding buffer (100 mM NaCl, 10 mM MgCl2, 20 mM HEPES, pH 7.4) on ice. The prepared membrane solution (190 μl/well) was transferred to 96-shallow well polypropylene plates containing 10 μl of 20× concentrated stock solutions of agonist prepared in DMSO. Plates were incubated for 30 min at a temperature of about 25° C. with shaking. Reactions were terminated by rapid filtration onto 96-well Unifilter GF/B filter plates (Perkin Elmer, Shelton, Conn.) using a 96-well tissue harvester (Packard) and followed by three filtration washes with 200 μl ice-cold binding buffer (10 mM NaH2PO4, 10 mM Na2HPO4, pH 7.4). Filter plates were subsequently dried at 50° C. for 2-3 hours. Fifty μl/well scintillation cocktail (Perkin Elmer, Shelton, Conn.) was added and plates were counted in a Packard Top-Count for 1 min/well.
κ GTP EC50 is the concentration of a compound providing 50% of the maximal response for the compound at a κ receptor.
κ GTP Emax (%) is the maximal effect elicited by a compound relative to the effect elicited by U69,593.
In TABLE 2, activity response of certain Compounds of the Invention at the μ- and κ-opioid receptors using HEK-293 or CHO cells was determined as described above for functional assays.

human κ opioid receptor [5] = biological target: T2, human κ opioid receptor; assay: κ-opioid receptor radioligand ([3H]-U69,593) dose-displacement binding assay, HEK-293 or CHO cells; parameters: expressed in transfected cells; host or cells: HEK-293 cells (in-house prep)
Procedure: Membranes from recombinant HEK-293 cells expressing the human K opioid receptor (cloned in house) were prepared by lysing cells in ice cold hypotonic buffer (2.5 mM MgCl2, 50 mM HEPES, pH 7.4) (10 mL/10 cm dish) followed by homogenization with a tissue grinder/Teflon pestle. Membranes were collected by centrifugation at 30,000×g for 15 min at 4° C. and pellets were resuspended in hypotonic buffer to a final concentration of 1-3 mg/mL. Protein concentrations were determined using the BioRad protein assay reagent with bovine serum albumen as standard. Aliquots of κ receptor membranes were stored at −80° C.
Radioligand dose displacement assays used 0.4 nM [^3H]-U69,593 (GE Healthcare, Piscataway, N.J.; 40 Ci/mmole) with 15 μg membrane protein (recombinant K opioid receptor expressed in HEK 293 cells; in-house prep) in a final volume of 200 μl binding buffer (5% DMSO, 50 mM Trizma base, pH 7.4). Non-specific binding was determined in the presence of 10 μM unlabeled naloxone or U69,593. All reactions were performed in 96-well polypropylene plates for 1 hr at a temperature of about 25° C. Binding reactions were terminated by rapid filtration onto 96-well Unifilter GF/C filter plates (Perkin Elmer, Shelton, Conn.) presoaked in 0.5% polyethylenimine (Sigma). Harvesting was performed using a 96-well tissue harvester (Perkin Elmer, Shelton, Conn.) followed by five filtration washes with 200 μl ice-cold binding buffer. Filter plates were subsequently dried at 50° C. for 1-2 hours. Fifty μl/well scintillation cocktail (Perkin Elmer, Shelton, Conn.) was added and plates were counted in a Packard Top-Count for 1 min/well.
as §1

human κ opioid receptor [6] = biological target: T2, human κ opioid receptor; assay: κ-opioid receptor [35S]GTPγS functional assay, U-2 OS cells; assay type: biochemical; parameters: expressed in transfected cells; host or cells: U-2 OS cells (in-house membranes); settings: for Emax: U2-OS cells, relative to U69,593
Summary of the method: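 Membranes from U-2 OS cells expressing human κ receptor (0.026 μg/μl protein) were incubated with agonist, 10 μg/mL saponin, 3 μM GDP and 0.20 nM [35S]GTPγS in pH 7.4 HEPES buffer for 30 min at about 25 °C. Bound radioactivity was measured after filtration. EC50 was taken at half-maximal response; Emax is relative to U69,593.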

T1 sequence (P35372 whole entry, species assumed): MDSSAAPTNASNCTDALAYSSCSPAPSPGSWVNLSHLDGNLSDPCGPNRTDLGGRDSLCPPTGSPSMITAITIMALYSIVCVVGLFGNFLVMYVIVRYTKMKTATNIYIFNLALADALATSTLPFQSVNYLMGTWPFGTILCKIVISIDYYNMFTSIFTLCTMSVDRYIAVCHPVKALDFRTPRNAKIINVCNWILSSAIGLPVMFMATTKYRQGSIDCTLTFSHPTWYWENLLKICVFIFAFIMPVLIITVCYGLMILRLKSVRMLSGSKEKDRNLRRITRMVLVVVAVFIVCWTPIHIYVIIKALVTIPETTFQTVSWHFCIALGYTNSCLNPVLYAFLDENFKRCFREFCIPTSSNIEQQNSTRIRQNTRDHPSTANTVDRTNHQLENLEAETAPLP

Row | Compound | Ki (μ-opioid receptor [1]) [nM] | EC50 (μ-opioid receptor [2]) [nM] | Emax (μ-opioid receptor [2]) [%] | EC50 (μ-opioid receptor [3]) [nM] | Emax (μ-opioid receptor [3]) [%] | EC50 (human κ opioid receptor [4]) [nM] | Emax (human κ opioid receptor [4]) [%] | Ki (human κ opioid receptor [5]) [nM] | EC50 (human κ opioid receptor [6]) [nM] | Emax (human κ opioid receptor [6]) [%]
1 | CC(=O)N[C@H]1C[C@@]2(O)[C@H]3Cc4ccc(O)cc4[C@@]2(CCN3CC2CC2)C[C@H]1O [Compound 55, N-((4bR,6R,7S,8aS,9R)-11-(cyclopropylmethyl)-3,6,8a-trihydroxy-6,7,8,8a,9,10-hexahydro-5H-9,4b-(epiminoethano)phenanthren-7-yl)acetamide] | 201 ± 62.1 | > 20000 | 1 | > 20000 | 4 | 203 ± 20.2 | 13.3 ± 0.88 | 54.8 ± 8.83 | 194 ± 54.4 | 77.7 ± 5.49
2 | COc1ccc2c(c1)[C@]13CCN(CC4CC4)[C@H](C2)[C@]1(O)CC[C@H](O)C3 [Compound 4, (4bR,6S,8aS,9R)-11-(cyclopropylmethyl)-3-methoxy-5,6,7,8,9,10-hexahydro-8aH-9,4b-(epiminoethano)phenanthrene-6,8a-diol] | 4590 ± 356 | 6140 | 33.7 ± 2.96 | – | – | 7860 | 55.8 ± 5.88 | 172 ± 12.8 | – | –
3 | CC(C)CN[C@@H]1C[C@@]2(O)[C@H]3Cc4ccc(O)cc4[C@@]2(CCN3CC2CC2)C[C@@H]1O [Compound 34, (4bR,6S,7R,8aS,9R)-11-(cyclopropylmethyl)-7-(isobutylamino)-5,6,7,8,9,10-hexahydro-8aH-9,4b-(epiminoethano)phenanthrene-3,6,8a-triol] | – | > 20000 | 1 | 3.84 ± 1.53 | 20.3 ± 1.76 | 0.55 ± 0.23 | 32 ± 1.35 | – | 0.81 ± 0.12 | 71 ± 1.53
4 | COc1ccc2c(c1)[C@]13CCN(CC4CC4)[C@H](C2)[C@]1(O)CC[C@@H](CC(=O)O)C3 [Compound 9, 2-((4bS,6R,8aS,9R)-11-(cyclopropylmethyl)-8a-hydroxy-3-methoxy-6,7,8,8a,9,10-hexahydro-5H-9,4b-(epiminoethano)phenanthren-6-yl)acetic acid] | – | – | – | 574 ± 87.2 | 36.3 ± 0.88 | 597 ± 163 | – | 597 ± 163 | – | –
5 | CC(C)CCCC(=O)N[C@H]1C[C@@]2(O)[C@H]3Cc4ccc(O)cc4[C@@]2(CCN3CC2CC2)CC1O (stereo partly drawn) [Compound 63, N-((4bR,7S,8aS,9R)-11-(cyclopropylmethyl)-3,6,8a-trihydroxy-6,7,8,8a,9,10-hexahydro-5H-9,4b-(epiminoethano)phenanthren-7-yl)-5-methylhexanamide] | – | 81.2 ± 8.25 | 23.3 ± 1.33 | 63.2 ± 8.31 | 58.7 ± 1.33 | 23 ± 4.32 | 21.2 ± 0.44 | 11.5 ± 0.97 | 38.8 ± 7.82 | 84.3 ± 1.67
6 | CC(C)C(=O)N[C@H]1C[C@@]2(O)[C@H]3Cc4ccc(O)cc4[C@@]2(CCN3CC2CC2)CC1O (stereo partly drawn) [Compound 50, N-((4bR,7S,8aS,9R)-11-(cyclopropylmethyl)-3,6,8a-trihydroxy-6,7,8,8a,9,10-hexahydro-5H-9,4b-(epiminoethano)phenanthren-7-yl)isobutyramide] | – | > 20000 | 1 | 113 ± 60.8 | 12.8 ± 0.85 | 29.2 ± 2.21 | 45.7 ± 2.19 | – | 47.3 ± 3.7 | 91.7 ± 1.33
7 | NCCCCN[C@@H]1CC[C@@]2(O)[C@H]3Cc4ccc(O)cc4[C@@]2(CCN3CC2CC2)C1 [Compound 14, (4bR,6R,8aS,9R)-6-((4-aminobutyl)amino)-11-(cyclopropylmethyl)-5,6,7,8,9,10-hexahydro-8aH-9,4b-(epiminoethano)phenanthrene-3,8a-diol] | 124 ± 43.5 | > 20000 | 8.67 ± 2.96 | 85.6 ± 3.31 | 74.3 ± 2.19 | – | – | 0.56 ± 0.052 | 5.47 ± 0.3 | 112 ± 5.13
8 | CN(C)[C@H]1CC[C@@]2(O)[C@H]3Cc4ccc(O)cc4[C@@]2(CCN3CC2CC2)C1 [Compound 10, (4bR,6S,8aS,9R)-11-(cyclopropylmethyl)-6-(dimethylamino)-5,6,7,8,9,10-hexahydro-8aH-9,4b-(epiminoethano)phenanthrene-3,8a-diol] | 3.84 ± 1.36 | > 20000 | 2.5 | 4.69 ± 0.74 | 33 ± 1.15 | – | – | 0.057 ± 0.01 | 0.79 ± 0.07 | 101 ± 6.23
